Where a name gives a salt, the structure may show the parent alone. Read-outs that look alike come from different tables or passages of the source. Starred links: 1 amine or outer side, 2 acyl side, 3 side chain; linkers in the order of their positions; H or OH if unused. Positions of bridges follow the written chain, without caps; N, C: chain ends. Non-standard residues stand in square brackets, D forms with d. Residues, ends and D or L forms follow the SMILES beside them. *: point of attachment. DOTA = O=C(O)CN1CCN(CC(=O)O)CCN(CC(=O)*)CCN(CC(=O)O)CC1; Trp(5-OH) = N[C@@H](Cc1c[nH]c2ccc(O)cc12)C(=O)O; NMePhe(4-F) = CN[C@@H](Cc1ccc(F)cc1)C(=O)O; X1 = O=C([C@H](Cc1cnn2ccccc12)N[*:1])[*:2]; X2 = O=C([C@H](Cc1ccc(O)nc1)N[*:1])[*:2]; NMehPhe = CN[C@@H](CCc1ccccc1)C(=O)O; Adipoyl = O=C(CCCCC(=O)[*:2])[*:1]; Aad = N[C@@H](CCCC(=O)O)C(=O)O; Gly(cPr) = N[C@H](C(=O)O)C1CC1; Ahp(2) = CCCCC[C@H](N)C(=O)O; NMeK = CN[C@@H](CCCCN)C(=O)O; NMeDap = CN[C@@H](CN)C(=O)O; NMeC = CN[C@@H](CS)C(=O)O; NMeS = CN[C@@H](CO)C(=O)O; hCys = N[C@@H](CCS)C(=O)O Where only a bound is given, the exact number is not on record here.

What all share (assay type): binding
The target of experiment [1] is T1, mouse HER2 (23-653) (Mus musculus, UniProt P70424). Nature of the experiment: Surface plasmon resonance (SPR) for assessment of peptide affinity, mouse HER2. Also on record: mouse HER2 (23-653) using a Cy5 labeled peptide as a probe; made in house. The note with it: SPR, mouse HER2 extracellular domain, 25° C., 1:1 binding model; read-out: moHER2-SPR-ONC KD. From the text: Each protein was immobilized either onto a SA sensorchip (Cytiva, BR-1005-31) or CM5 sensorchip (Cytiva, BR-1005-30) to a density of 800-2000 RU.
(In general: Surface plasmon resonance follows binding to a sensor surface in real time, without labels.)

The target in experiment [2] is T2, human HER2 (23-652) (Homo sapiens, UniProt P04626). In words: Surface plasmon resonance (SPR) for assessment of peptide affinity, human HER2. The following applies: SPR, human HER2 extracellular domain, 25° C., 1:1 binding model; read-out: huHER2-SPR-ONC KD. Also on record: towards human HER2 (23-652) and mouse HER2 (23-653); made in house. The method in brief: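 Binding kinetics fitted from sensorgrams with 280 s peptide association then 3000 s dissociation (30 uL/min), using HER2 (23-652) either directly immobilized (SA/CM5) or anti-Fc-captured; 3 M magnesium chloride used for regeneration.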

Experiment [3] addresses T1, mouse HER2 (23-653). In words: TR-FRET competition assay for peptide potency, mouse HER2. The arrangement: mouse HER2 (23-653) using a Cy5 labeled peptide as a probe; made in house; host or cells: mammalian cells. The following applies: TR-FRET competition with Cy5 labeled peptide probe, 0.1 nM mouse HER2, 24 h incubation; read-out: moHER2 TR-FRET IC50. A general note: TR-FRET usually uses a lanthanide donor and a delayed reading to cut background.

Experiment [4] addresses T2, human HER2 (23-652). Nature of the experiment: TR-FRET competition assay for peptide potency, human HER2. The arrangement: towards human HER2 (23-652) and mouse HER2 (23-653); made in house; host or cells: mammalian cells. The note with it: read-out: huHER2 TR-FRET IC50.

The Kd is the concentration at which binding is half-saturated. The term IC50 denotes the concentration at which inhibition is half-maximal. Turning to `CC(=O)N[C@H]1CCC(=O)NC[C@@H](C(=O)N(C)[C@@H](Cc2ccc(F)cc2)C(N)=O)N(C)C(=O)[C@H](C2CC2)NC(=O)[C@H](Cc2cnn3ccccc23)NC(=O)[C@H](Cc2c[nH]c3ccc(O)cc23)NC(=O)[C@H](CO)N(C)C(=O)[C@H](CCc2ccccc2)N(C)C(=O)[C@H](CO)NC(=O)[C@H](Cc2ccc(O)cc2)NC1=O` [Example A21, (3S,6S,9S,12S,15S,18S,21S,24S,27S)-27-acetamido-N-((S)-1-amino-3-(4-fluorophenyl)-1-oxopropan-2-yl)-6-cyclopropyl-12-((5-hydroxy-1H-indol-3-yl)methyl)-24-(4-hydroxybenzyl)-15,21-bis(hydroxymethyl)-N,4,16,19-tetramethyl-5,8,11,14,17,20,23,26,30-nonaoxo-18-phenethyl-9-(pyrazolo[1,5-a]pyridin-3-ylmethyl)-1,4,7,10,13,16,19,22,25-nonaazacyclotriacontane-3-carboxamide] (Ac-EYS[NMehPhe][NMeS][Trp(5-OH)][X1][Gly(cPr)][NMeDap][NMePhe(4-F)]-NH2; lactam 1-9), the Kd on mouse HER2 (23-653) [1] and at human HER2 (23-652) [2] was > 6000 nM each time. The IC50 at mouse HER2 (23-653) [3] and on human HER2 (23-652) [4] was > 1000 nM throughout.
Consider `CC(=O)NCCCC[C@H]1C(=O)N[C@@H](Cc2c[nH]c3ccc(O)cc23)C(=O)N[C@@H](Cc2c[nH]c3ccccc23)C(=O)N[C@@H](C2CC2)C(=O)N(C)[C@H](C(=O)N(C)[C@@H](Cc2ccc(F)cc2)C(N)=O)CNC(=O)CCC[C@H](NC(C)=O)C(=O)N[C@@H](Cc2ccc(O)cc2)C(=O)N[C@@H](CO)C(=O)N(C)[C@@H](CCc2ccccc2)C(=O)N1C` [Example A5, (3S,6S,9S,12S,15S,18S,21S,24S,27S)-9-((1H-indol-3-yl)methyl)-27-acetamido-15-(4-acetamidobutyl)-N-((S)-1-amino-3-(4-fluorophenyl)-1-oxopropan-2-yl)-6-cyclopropyl-12-((5-hydroxy-1H-indol-3-yl)methyl)-24-(4-hydroxybenzyl)-21-(hydroxymethyl)-N,4,16,19-tetramethyl-5,8,11,14,17,20,23,26,31-nonaoxo-18-phenethyl-1,4,7,10,13,16,19,22,25-nonaazacyclohentriacontane-3-carboxamide] (Ac-[Aad]YS[NMehPhe][NMeK](Ac)[Trp(5-OH)]W[Gly(cPr)][NMeDap][NMePhe(4-F)]-NH2; lactam 1-9), for which the Kd is 0.6 nM on mouse HER2 (23-653) [1] and 0.5 nM at human HER2 (23-652) [2]. Besides, the IC50 at mouse HER2 (23-653) [3] came out at 0.8 nM; at human HER2 (23-652) [4], 0.4 nM.
On the same counts, the results for `CC(=O)N[C@H]1CCCC(=O)NC[C@@H](C(=O)N(C)[C@@H](Cc2ccc(F)cc2)C(=O)N[C@@H](CCCCNC(=O)CN2CCN(CC(=O)O)CCN(CC(=O)O)CCN(CC(=O)O)CC2)C(N)=O)N(C)C(=O)[C@H](C2CC2)NC(=O)[C@H](Cc2c[nH]c3ccccc23)NC(=O)[C@H](Cc2c[nH]c3ccc(O)cc23)NC(=O)[C@H](CCCCNC(=O)CO)N(C)C(=O)[C@H](CCc2ccccc2)N(C)C(=O)[C@H](CO)NC(=O)[C@H](Cc2ccc(O)cc2)NC1=O` [Example B5] are 0.1 nM, < 0.1 nM, 0.2 nM and < 0.1 nM.
For `CCCCC[C@@H]1NC(=O)[C@H](CCCCNC(C)=O)N(C)C(=O)[C@H](CCc2ccccc2)N(C)C(=O)[C@H](CO)NC(=O)[C@H](Cc2ccc(O)cc2)NC(=O)[C@@H](NC(C)=O)CCCC(=O)NC[C@@H](C(=O)N(C)[C@@H](Cc2ccc(F)cc2)C(N)=O)N(C)C(=O)[C@H](C2CC2)NC(=O)[C@H](Cc2c[nH]c3ccccc23)NC1=O` [Example A11, (3S,6S,9S,12S,15S,18S,21S,24S,27S)-9-((1H-indol-3-yl)methyl)-27-acetamido-15-(4-acetamidobutyl)-N-((S)-1-amino-3-(4-fluorophenyl)-1-oxopropan-2-yl)-6-cyclopropyl-24-(4-hydroxybenzyl)-21-(hydroxymethyl)-N,4,16,19-tetramethyl-5,8,11,14,17,20,23,26,31-nonaoxo-12-pentyl-18-phenethyl-1,4,7,10,13,16,19,22,25-nonaazacyclohentriacontane-3-carboxamide] (Ac-[Aad]YS[NMehPhe][NMeK](Ac)[Ahp(2)]W[Gly(cPr)][NMeDap][NMePhe(4-F)]-NH2; lactam 1-9) the same measures were 786 nM, 445 nM, > 1000 nM and 966 nM.
In the case of `CN1C(=O)[C@H](CO)NC(=O)[C@H](Cc2ccc(O)cc2)NC(=O)[C@@H](N)CCSSC[C@@H](C(=O)N(C)[C@@H](Cc2ccc(F)cc2)C(N)=O)N(C)C(=O)[C@H](C2CC2)NC(=O)[C@H](Cc2c[nH]c3ccccc23)NC(=O)[C@H](Cc2c[nH]c3ccc(O)cc23)NC(=O)[C@H](CO)N(C)C(=O)[C@@H]1CCc1ccccc1` [Example A57, (4R,7S,10S,13S,16S,19S,22S,25S,28S)-10-((1H-indol-3-yl)methyl)-28-amino-N-((S)-1-amino-3-(4-fluorophenyl)-1-oxopropan-2-y1)-7-cyclopropyl-13-((5-hydroxy-1H-indol-3-y1)methyl)-25-(4-hydroxybenzyl)-16,22-bis(hydroxymethyl)-N,5,17,20-tetramethyl-6,9,12,15,18,21,24,27-octaoxo-19-phenethyl-1,2-dithia-5,8,11,14,17,20,23,26-octaazacyclotriacontane-4-carboxamide TFA salt] (H-[hCys]YS[NMehPhe][NMeS][Trp(5-OH)]W[Gly(cPr)][NMeC][NMePhe(4-F)]-NH2; disulfide 1-9), the values for the Kd on mouse HER2 (23-653) [1] and at human HER2 (23-652) [2] were 1460 nM and 2000 nM, respectively. The IC50 at mouse HER2 (23-653) [3] and on human HER2 (23-652) [4] was > 1000 nM each time.
For `CC(=O)NCCCC[C@H]1C(=O)N[C@@H](Cc2c[nH]c3ccc(O)cc23)C(=O)N[C@@H](Cc2c[nH]c3ccccc23)C(=O)N[C@@H](C2CC2)C(=O)N(C)[C@H](C(=O)N(C)[C@@H](Cc2ccc(F)cc2)C(=O)N[C@@H](CCCCNC(=O)CN2CCN(CC(=O)O)CCN(CC(=O)O)CCN(CC(=O)O)CC2)C(N)=O)CNC(=O)CCCCC(=O)N[C@@H](Cc2ccc(O)cc2)C(=O)N[C@@H](CO)C(=O)N(C)[C@@H](CCc2ccccc2)C(=O)N1C` [Example C14] (YS[NMehPhe][NMeK](Ac)[Trp(5-OH)]W[Gly(cPr)][NMeDap][NMePhe(4-F)]K(DOTA)-NH2; linker N-8 via Adipoyl), the results for the Kd on mouse HER2 (23-653) [1] and on human HER2 (23-652) [2] were 0.2 nM and < 0.1 nM, respectively. The IC50 at mouse HER2 (23-653) [3] is 0.3 nM; on human HER2 (23-652) [4] (TR-FRET competition with Cy5 labeled peptide probe, 0.1 nM human HER2, 24 h incubation), < 0.1 nM.
Regarding `CC(=O)N[C@H]1CCC(=O)NC[C@@H](C(=O)N(C)[C@@H](Cc2ccc(F)cc2)C(N)=O)N(C)C(=O)[C@H](C2CC2)NC(=O)[C@H](Cc2c[nH]c3ccccc23)NC(=O)[C@H](Cc2c[nH]c3ccc(O)cc23)NC(=O)[C@H](CO)N(C)C(=O)[C@H](CCc2ccccc2)N(C)C(=O)[C@H](CO)NC(=O)[C@H](Cc2ccc(O)nc2)NC1=O` [Example A1, (3S,6S,9S,12S,15S,18S,21S,24S,27S)-9-((1H-indol-3-yl)methyl)-27-acetamido-N—((S)-1-amino-3-(4-fluorophenyl)-1-oxopropan-2-yl)-6-cyclopropyl-12-((5-hydroxy-1H-indol-3-yl)methyl)-15,21-bis(hydroxymethyl)-24-((6-hydroxypyridin-3-yl)methyl)-N,4,16,19-tetramethyl-5,8,11,14,17,20,23,26,30-nonaoxo-18-phenethyl-1,4,7,10,13,16,19,22,25-nonaazacyclotriacontane-3-carboxamide] (Ac-E[X2]S[NMehPhe][NMeS][Trp(5-OH)]W[Gly(cPr)][NMeDap][NMePhe(4-F)]-NH2; lactam 1-9), the results for the Kd at mouse HER2 (23-653) [1] and at human HER2 (23-652) [2] were 98 nM and 97 nM, respectively. For the same compound, the IC50 at mouse HER2 (23-653) [3] is 224 nM; on human HER2 (23-652) [4], 111 nM.

For the origin of these results see patent US20250332300A1 (priority 2024, published 2025).
